“Also recorded” adds a separate entry of the source. Where two headings read alike, the source gives them in different places.
Key:
[1] = test system: Balb/c mice lung; settings: mouse, in vivo
[2] = test system: Balb/c mice lung; settings: mouse, in vivo; remark: listed apart in the source
[3] = test system: Balb/c mice; settings: mouse, in vivo
[4] = test system: Balb/c mice lung; settings: mouse, in vivo; remark: listed apart in the source
[5] = test system: A549 cells; type: cell-based
[6] = test system: A549 cells; type: cell-based; remark: listed apart in the source
[7] = test system: Balb/c mice lung; settings: mouse, in vivo; remark: listed apart in the source
[8] = test system: A549 cells; type: cell-based; remark: listed apart in the source
[9] = test system: LC3; parameters: species or system Balb/c mice; settings: mouse, in vivo

Row | SMILES | counts of inflammatory cells in lung pathological sections [1] | lung wet/dry ratio [2] | lung wet/dry ratio ([2]; ip) | survival curve of mice [3] | lung elasticity [4] | percentage of cells with EGFP-LC3 agglutination [5] | percentage of A549 cells with autophagy induced by PAMAM G3, electron microscope [6] | lung injury, pathological sections [7] | survival rate of A549 cells [8] | content of LC3 II in mice lung tissue (ratio to β-actin) [9] | cell autophagy induced by inactivated H5N1 avian influenza virus, electron microscope [6]
1 | Cn1cnc(N)c2ncnc1-2 [3-MA, 3-methyladenine] | reduced the augmentation of the counts inflammatory cells | decreased the augmentation of wet/dry ratio | relieved the increased lung wet/dry ratio | can significantly relieve the death of mice; also recorded: has effect on delaying the death of mice | relieves the changes of lung elasticity; also recorded: has some effect on relieving the induced injury | can be relieved | can be relieved; also recorded: reduced the percentage of cells with autophagy | has some effect on ameliorating the lung injury | decreases the cell death; also recorded: can significantly reduce cell death | relieved the occurrence of autophagy | 
2 | C[S+]([O-])c1ccc(-c2nc(-c3ccncc3)c(-c3ccc(F)cc3)[nH]2)cc1 (stereo not shown) [SB203580] | reduced the counts of infiltrated inflammatory cells; also recorded: reduced the augmentation of infiltrated inflammatory cells |  |  |  |  |  |  | has some effect on ameliorating the lung injury; also recorded: has some effect on amelioratiing the lung injury |  |  | reduced cell autophagy; also recorded: can effectively inhibit the occurrence of autophagy
